Experimental data taken from ChEMBL document CHEMBL5096199, “Structure-Based Optimization of Small Molecule Human Galactokinase Inhibitors” (J Med Chem, 2021).
Converted amounts (≈) assume the structure as drawn. One block for each compound: values may come before it.

What was measured:
Galactokinase [1] = target: T1, Galactokinase (Homo sapiens, UniProt P51570); experiment: Inhibition of recombinant human GALK1 using galactose as substrate incubated for 1 hrs in the presence of ATP by Kinase-Glo reagent based luminescence assay
[2] = Permeability of the compound at pH 7.4 measured after 30 mins by PAMPA based LC/MS analysis; format: ADME
physchem = settings: phosphate buffer, pH 7.4
Description: Kinetic solubility of the compound in phosphate buffer at pH 7.4 at 150 uM incubated for 6 hrs by shake-flask method

[3] = Metabolic stability in human liver microsomes assessed as half life; format: ADME, Microsome
[4] = Metabolic stability in mouse liver microsome assessed as half life; format: ADME; settings: microsomes
[5] = Cmax in CD-1 mouse at 50 mg/kg, ip measured upto 24 hrs by LC-MS/MS analysis; format: ADME, organism-based; design: dose 50 mg/kg, time < 24 hrs, route ip; settings: in vivo
[6] = Half life in CD-1 mouse at 30 mg/kg, po measured upto 24 hrs by LC-MS/MS analysis; format: ADME, organism-based; settings: in vivo
[7] = Half life in CD-1 mouse at 3 mg/kg, iv measured upto 24 hrs by LC-MS/MS analysis; format: ADME, organism-based; settings: in vivo
[8] = Drug concentration in CD-1 mouse plasma at 3 mg/kg, iv measured after 2 hrs by LC-MS/MS analysis; format: ADME, organism-based; settings: in vivo, BLD = below limit of detection
[9] = AUCinfinity in CD-1 mouse at 3 mg/kg, iv measured upto 24 hrs by LC-MS/MS analysis; format: ADME, organism-based; design: time < 24 hrs, dose 3 mg/kg, route iv; settings: in vivo
[10] = C0 in CD-1 mouse at 3 mg/kg, iv measured upto 24 hrs by LC-MS/MS analysis; format: ADME, organism-based; settings: in vivo
[11] = Observed volume of distribution at steady state in CD-1 mouse at 3 mg/kg, iv measured upto 24 hrs by LC-MS/MS analysis; format: ADME, organism-based; settings: in vivo, read-out: Vdss
[12] = Cmax in CD-1 mouse at 30 mg/kg, po measured upto 24 hrs by LC-MS/MS analysis; format: ADME, organism-based; design: time < 24 hrs, dose 30 mg/kg, route po; settings: in vivo
[13] = AUClast in CD-1 mouse at 30 mg/kg, po measured upto 24 hrs by LC-MS/MS analysis; format: ADME, organism-based; design: dose 30 mg/kg, time < 24 hrs, route po; settings: in vivo
[14] = AUCinfinity in CD-1 mouse at 50 mg/kg, ip measured upto 24 hrs by LC-MS/MS analysis; format: ADME, organism-based; design: time < 24 hrs, dose 50 mg/kg, route ip; settings: in vivo
[15] = Dose normalized AUClast in CD-1 mouse at 3 mg/kg, iv measured upto 24 hrs by LC-MS/MS analysis; format: ADME, organism-based; settings: in vivo
[16] = AUClast in CD-1 mouse at 50 mg/kg, ip measured upto 24 hrs by LC-MS/MS analysis; format: ADME, organism-based; design: time < 24 hrs, dose 50 mg/kg, route ip; settings: in vivo
[17] = AUClast in CD-1 mouse at 3 mg/kg, iv measured upto 24 hrs by LC-MS/MS analysis; format: ADME, organism-based; design: time < 24 hrs, dose 3 mg/kg, route iv; settings: in vivo
[18] = Tmax in CD-1 mouse at 30 mg/kg, po measured upto 24 hrs by LC-MS/MS analysis; format: ADME, organism-based; settings: in vivo
Galactokinase [19] = target: T1, Galactokinase; experiment: Inhibition of human GALK1 in GALT-deficient human fibroblast assessed as reduction in gal-1P level at 3 uM incubated for 2 to 4 hrs by cellular Gal-1P accumulation assay relative to control; format: cell-based; settings: time 2-4 hrs
[20] = Dose normalized AUClast in CD-1 mouse at 50 mg/kg, ip measured upto 24 hrs by LC-MS/MS analysis; format: ADME, organism-based; settings: in vivo
Galactokinase [21] = target: T1, Galactokinase; experiment: Inhibition of human GALK1 in GALT-deficient human fibroblast assessed as reduction in gal-1P level incubated for 2 to 4 hrs by cellular Gal-1P accumulation assay; format: cell-based; settings: dose 0.5-3 µM, time 2-4 hrs, DDE = dose-dependent effect
[22] = Plasma protein binding in CD-1 mouse; format: ADME, cell-free
[23] = AUCinfinity in CD-1 mouse at 30 mg/kg, po measured upto 24 hrs by LC-MS/MS analysis; format: ADME, organism-based; design: time < 24 hrs, dose 30 mg/kg, route po; settings: in vivo
[24] = Dose normalized AUClast in CD-1 mouse at 30 mg/kg, po measured upto 24 hrs by LC-MS/MS analysis; format: ADME, organism-based; settings: in vivo
[25] = Half life in CD-1 mouse at 50 mg/kg, ip measured upto 24 hrs by LC-MS/MS analysis; format: ADME, organism-based; settings: in vivo
[26] = Drug concentration in CD-1 mouse plasma at 50 mg/kg, ip measured after 7 hrs by LC-MS/MS analysis; format: ADME, organism-based
[27] = Tmax in CD-1 mouse at 50 mg/kg, ip measured upto 24 hrs by LC-MS/MS analysis; format: ADME, organism-based; settings: in vivo
[28] = Oral bioavailability in CD-1 mouse at 30 mg/kg measured upto 24 hrs by LC-MS/MS analysis; format: ADME, organism-based; settings: in vivo

T1 sequence (P51570 whole entry): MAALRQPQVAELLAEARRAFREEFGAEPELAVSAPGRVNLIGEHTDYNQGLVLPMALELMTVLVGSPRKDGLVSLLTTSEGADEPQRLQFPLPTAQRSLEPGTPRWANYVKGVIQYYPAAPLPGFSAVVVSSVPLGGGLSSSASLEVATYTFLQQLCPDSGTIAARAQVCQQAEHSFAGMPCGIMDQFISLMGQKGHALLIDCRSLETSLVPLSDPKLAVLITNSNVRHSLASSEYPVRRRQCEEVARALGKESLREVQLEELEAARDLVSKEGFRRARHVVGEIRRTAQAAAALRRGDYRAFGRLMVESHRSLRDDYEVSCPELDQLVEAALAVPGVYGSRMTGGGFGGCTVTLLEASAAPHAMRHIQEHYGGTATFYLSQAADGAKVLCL

- IC50 (Galactokinase [1]; read-out: pIC50 (converted)): 9.33 µM
Compound: CC1=C(C(=O)NCc2cccc(C(=O)O)c2)C(c2ccccc2Cl)N=C(Nc2nc3ccccc3o2)N1 (stereo not given)

- IC50 (Galactokinase [1]; read-out: pIC50 (converted)): 0.933 µM
Compound: CC1=C(C(=O)Nc2cc(C(=O)O)ccn2)C(c2ccccc2Cl)N=C(Nc2nc3cccc(C)c3o2)N1 (stereo not given)

- IC50 (Galactokinase [1]; read-out: pIC50 (converted)): 0.562 µM
Compound: CC1=C(C(=O)Nc2cc(C(=O)O)ccn2)C(c2ccccc2Br)N=C(Nc2nc3ccc(F)cc3o2)N1 (stereo not given)

- IC50 (Galactokinase [1]; read-out: pIC50 (converted)): 9.33 µM
Compound: CC1=C(C(=O)Nc2cc(C(=O)O)ccn2)C(c2ccccc2Cl)N=C(Nc2nc3c(C)cccc3o2)N1 (stereo not given)

- IC50 (Galactokinase [1]; read-out: pIC50 (converted)): 11.7 µM
Compound: CC1=C(C(=O)NCc2cnn(C)c2)[C@@H](c2ccc(C)cc2Cl)N=C(Nc2nc3cccc(N)c3o2)N1

- IC50 (Galactokinase [1]; read-out: pIC50 (converted)): 0.891 µM
Compound: CC1=C(C(=O)Nc2cc(C(=O)O)ccn2)C(c2ccc(F)cc2Cl)N=C(Nc2nc3ccc(F)cc3o2)N1 (stereo not given)

- IC50 (Galactokinase [1]; read-out: pIC50 (converted)): 3.72 µM
Compound: CC1=C(C(=O)NCc2ccc(C(=O)O)cc2)C(c2ccccc2Cl)N=C(Nc2nc3ccccc3o2)N1 (stereo not given)

- IC50 (Galactokinase [1]; read-out: pIC50 (converted)): 1.78 µM
Compound: CC1=C(C(=O)Nc2cc(C(=O)O)ccn2)C(c2ccccc2Cl)N=C(Nc2nc3cccc(F)c3o2)N1 (stereo not given)

- IC50 (Galactokinase [1]; read-out: pIC50 (converted)): 4.17 µM
Compound: CC1=C(C(=O)Nc2ccccc2Cl)C(c2ccccc2Cl)N=C(Nc2nc3ccccc3o2)N1 (stereo not given)

- IC50 (Galactokinase [1]; read-out: pIC50 (converted)): 7.41 µM
Compound: CC1=C(C(=O)Nc2cc(C(=O)O)ccn2)C(c2ccccc2Cl)N=C(Nc2nc3cc(N)ccc3o2)N1 (stereo not given)

- IC50 (Galactokinase [1]; read-out: pIC50 (converted)): 3.72 µM
Compound: CC1=C(C(=O)Nc2ccc(O)cc2)C(c2ccccc2Cl)N=C(Nc2nc3ccccc3o2)N1 (stereo not given)

- IC50 (Galactokinase [1]; read-out: pIC50 (converted)): 6.61 µM
Compound: CC1=C(C(=O)Nc2cccnc2)C(c2ccccc2Cl)N=C(Nc2nc3ccccc3o2)N1 (stereo not given)

- IC50 (Galactokinase [1]; read-out: pIC50 (converted)): 6.61 µM
Compound: CC1=C(C(=O)NCc2ccc(CO)cc2)C(c2ccccc2Cl)N=C(Nc2nc3ccccc3o2)N1 (stereo not given)

- permeability ([2]; pampa, pH 7.4, 0.5 h): 315 10^-6 cm/s
- solubility kinetic at 6 h, 150 µM (physchem): 8.3 µg/mL (≈ 16.4 µM)
- t1/2 [3]: 32 min
- t1/2 [4]: 11 min
- IC50 (Galactokinase [1]; read-out: pIC50 (converted)): 0.209 µM
Compound: CC1=C(C(=O)NCc2cnn(C)c2)C(c2ccc(C)cc2Cl)N=C(Nc2nc3cccc(N)c3o2)N1 (racemic)

- IC50 (Galactokinase [1]; read-out: pIC50 (converted)): 1.41 µM
Compound: CC1=C(C(=O)NCc2cnn(C)c2)C(c2ccccc2Cl)N=C(Nc2nc3ccccc3o2)N1 (stereo not given)

- Papp at 0.5 h ([2]; PAMPA, pH 7.4, read-out: permeability): 485 ×10⁻⁶ cm/s
- Cmax [5]: 21.9 µM
- t1/2 [6]: 136 min
- t1/2 [7]: 24.6 min
- Cp [8]: Bld
- AUC [9]: 4.81 µM·h
- C0 at 24 h [10]: 8.25 µM
- Vd [11]: 0.652 L/kg
- Cmax [12]: 7.02 µM
- solubility kinetic at 6 h, 150 µM (physchem): 1.3 µg/mL (≈ 2.49 µM)
- AUClast [13]: 15.96 µM·h
- AUC [14]: 80.36 µM·h
- AUClast/dose [15]: 812 ng·h/mL/(mg/kg)
- AUClast [16]: 80.36 µM·h
- AUClast [17]: 4.66 µM·h
- Tmax [18]: 40.2 min
- inhibition (Galactokinase [19]): 50%
- AUClast/dose [20]: 841 ng·h/mL/(mg/kg)
- inhibition (Galactokinase [21]): Dde
- PPB [22]: 98.74%
- AUC [23]: 16.06 µM·h
- t1/2 [4]: 14 min
- AUClast/dose [24]: 278 ng·h/mL/(mg/kg)
- t1/2 [25]: 102 min
- concentration at 7 h [26]: > 1 µM
- Tmax [27]: 79.98 min
- F [28]: 33%
- IC50 (Galactokinase [1]; read-out: IC50): 0.048 µM
Compound: CC1=C(C(=O)NCc2cnn(C)c2)C(c2ccc(C)cc2Cl)N=C(Nc2nc3ccc(F)c(N)c3o2)N1 (racemic)

- IC50 (Galactokinase [1]; read-out: pIC50 (converted)): 6.61 µM
Compound: CC1=C(C(=O)Nc2cccc(F)c2)C(c2ccccc2Cl)N=C(Nc2nc3ccccc3o2)N1 (stereo not given)

- IC50 (Galactokinase [1]; read-out: pIC50 (converted)): 5.25 µM
Compound: CC1=C(C(=O)Nc2nnc(C)s2)C(c2ccccc2Cl)N=C(Nc2nc3ccccc3o2)N1 (stereo not given)

Compound: CC1=C(C(=O)Nc2cc(C(=O)O)ccn2)C(c2ccccc2Cl)N=C(Nc2nc3cc(Cl)ccc3o2)N1 (stereo not given)
- IC50 (Galactokinase [1]; read-out: pIC50 (converted)): 2.63 µM
